Experiments:
Type in all cases: cell-based
[1] = test system: human islets; test: Human islet perifusion, insulin secretion with Ex9 or hGIP(3-30) (Extended Data Fig. 2); set-up: key to iAUC: insulin iAUC, ng/ml × (1/200 µl/ml) × (1/75 islets), baseline = first point; conditions: insulin secretion; for Mean (One way ANOVA): iAUC, Control = 1, mean of n = 3; for iAUC: TZP + PBS or labelled antagonist
Protocol: (§1) Human islets were obtained from both the Alberta Diabetes Institute and the Integrated Islet Distribution Program. All islets were obtained from consenting donors. Details for the general perifusion protocol have been previously described[21] and are similar to the mouse perifusion protocol. […] Each set of human islets consisted of n = 3 for each condition. These were averaged to generate a single data point (Fig. 2c). Insulin values were measured with a Lumit insulin immunoassay (Promega) using an EnVision plate reader (PerkinElmer). For the glucagon secretion experiments (Fig. 3), the average glucagon values were calculated during control (minutes 35–45) and stimulated (minutes 55–65) conditions. All peptides were used at 30 nM concentrations based on previous work[16]. Amino acids were used at concentrations of 3 mM based on previous work[11]. Glucagon was measured with a Lumit Glucagon Immunoassay Kit (cat. no. CS3037A02; Promega) using an EnVision plate reader (PerkinElmer). Somatostatin was measured with an ELISA assay (cat. no. FEK-060-14; Phoenix Pharmaceuticals). All data are expressed as the measured concentration relative to both flow rate and islet number (insulin, ng ml^–1 × (1/200 µl ml^–1) × (1/75 islets); glucagon, pM × (1/200 µl ml^–1) × (1/75 islets); somatostatin, pg ml^–1 × (1/200 µl ml^–1) × (1/75 islets))[49]. Human pancreatic islets and pancreas tissue were isolated from deceased donors under ethical approval from the Human Research Ethics Board of the University of Alberta (Pro00013094, Pro00001754) and obtained from the NIDDK-funded Integrated Islet Distribution Program (IIDP) (RRID: SCR _014387). All donors’ families gave informed consent for the use of pancreatic tissue in research and were not financially compensated.
The integrated area under the curve (iAUC) was calculated for both glucose and tirzepatide stimulated insulin secretion using the value of the first time point as the baseline. All values are mean + /- SEM, n = 3/group. A one-way ANOVA with Tukey’s posthoc test was used. Source data

[2] = test system: mouse islets; test: Mouse islet perifusion, control and Gipr beta-cell knockout islets ± Ex9 (Fig. 1a), insulin secretion; conditions: Ex9 1 μM
Protocol: (§2) In brief, islets were individually picked to ensure consistency across chambers with respect to both number and size. […] Insulin values were measured with a Lumit insulin immunoassay (Promega) using an EnVision plate reader (PerkinElmer).

[3] = test system: mouse islets; test: Mouse islet perifusion with incretin receptor antagonists (Fig. 1b), insulin secretion; conditions: antagonists 1 μM, tirzepatide 0–100 nM
Protocol: as §2

[4] = test system: human islets; test: Human islet perifusion, insulin secretion (Fig. 2); conditions: human islets stimulated with TZP; for TZP insulin secretion iAUC, Percent Control: % of Average Control (PBS); for TZP insulin secretion iAUC: PBS or antagonist(s) as labelled
Protocol: as §1

Substance: exendin(9-39) [Ex9]
- Mean (One way ANOVA) ([1]; donor R464, R464 (3-30) TZP): 1.267
- Mean (One way ANOVA) ([1]; donor S5423, SAMN5423 (3-30) TZP): 1.135
- iAUC ([1]; donor R464, replicate 1): 1.277
- iAUC ([1]; donor R464, replicate 2): 1.0253
- iAUC ([1]; donor R464, replicate 3): 1.497
- iAUC ([1]; donor S5423, replicate 1): 1.294
- iAUC ([1]; donor S5423, replicate 2): 1.08
- iAUC ([1]; donor S5423, replicate 3): 1.031
- Effect on tirzepatide-stimulated insulin secretion [2]: completely blocked insulin secretion in response to tirzepatide
- Effect on tirzepatide-stimulated insulin secretion [3]: prevented insulin secretion in response to tirzepatide
- TZP insulin secretion iAUC, Percent Control ([4]; donor R434, replicate 1): 81.0 %Control
- TZP insulin secretion iAUC, Percent Control ([4]; donor R434, replicate 2): 70.5 %Control
- TZP insulin secretion iAUC, Percent Control ([4]; donor R434, replicate 3): 110.7 %Control
- TZP insulin secretion iAUC ([4]; donor R434, replicate 1): 149.1
- TZP insulin secretion iAUC ([4]; donor R434, replicate 2): 129.7
- TZP insulin secretion iAUC ([4]; donor R434, replicate 3): 203.7
- TZP insulin secretion iAUC, Percent Control ([4]; donor R443, replicate 1): 152.6 %Control
- TZP insulin secretion iAUC, Percent Control ([4]; donor R443, replicate 2): 43.9 %Control
- TZP insulin secretion iAUC, Percent Control ([4]; donor R443, replicate 3): 123.9 %Control
- TZP insulin secretion iAUC ([4]; donor R443, replicate 1): 9.764
- TZP insulin secretion iAUC ([4]; donor R443, replicate 2): 2.809
- TZP insulin secretion iAUC ([4]; donor R443, replicate 3): 7.929
- TZP insulin secretion iAUC, Percent Control ([4]; donor R444, replicate 1): 49.3 %Control
- TZP insulin secretion iAUC, Percent Control ([4]; donor R444, replicate 2): 46.5 %Control
- TZP insulin secretion iAUC, Percent Control ([4]; donor R444, replicate 3): 59.5 %Control
- TZP insulin secretion iAUC ([4]; donor R444, replicate 1): 12.31
- TZP insulin secretion iAUC ([4]; donor R444, replicate 2): 11.61
- TZP insulin secretion iAUC ([4]; donor R444, replicate 3): 14.86
- TZP insulin secretion iAUC, Percent Control ([4]; donor R448, replicate 1): 95.4 %Control
- TZP insulin secretion iAUC, Percent Control ([4]; donor R448, replicate 2): 86.1 %Control
- TZP insulin secretion iAUC, Percent Control ([4]; donor R448, replicate 3): 78.6 %Control
- TZP insulin secretion iAUC ([4]; donor R448, replicate 1): 169.1
- TZP insulin secretion iAUC ([4]; donor R448, replicate 2): 152.5
- TZP insulin secretion iAUC ([4]; donor R448, replicate 3): 139.2
- TZP insulin secretion iAUC, Percent Control ([4]; donor R449, replicate 1): 10.8 %Control
- TZP insulin secretion iAUC, Percent Control ([4]; donor R449, replicate 2): 15.5 %Control
- TZP insulin secretion iAUC, Percent Control ([4]; donor R449, replicate 3): 25.1 %Control
- TZP insulin secretion iAUC ([4]; donor R449, replicate 1): 14.8
- TZP insulin secretion iAUC ([4]; donor R449, replicate 2): 21.27
- TZP insulin secretion iAUC ([4]; donor R449, replicate 3): 34.32
- TZP insulin secretion iAUC, Percent Control ([4]; donor R451, replicate 1): 39.0 %Control
- TZP insulin secretion iAUC, Percent Control ([4]; donor R451, replicate 2): 22.6 %Control
- TZP insulin secretion iAUC, Percent Control ([4]; donor R451, replicate 3): 24.7 %Control
- TZP insulin secretion iAUC ([4]; donor R451, replicate 1): 36.08
- TZP insulin secretion iAUC ([4]; donor R451, replicate 2): 20.91
- TZP insulin secretion iAUC ([4]; donor R451, replicate 3): 22.84
- TZP insulin secretion iAUC, Percent Control ([4]; donor S1472, replicate 1): 91.9 %Control
- TZP insulin secretion iAUC, Percent Control ([4]; donor S1472, replicate 2): 146.0 %Control
- TZP insulin secretion iAUC, Percent Control ([4]; donor S1472, replicate 3): 127.6 %Control
- TZP insulin secretion iAUC ([4]; donor S1472, replicate 1): 50.05
- TZP insulin secretion iAUC ([4]; donor S1472, replicate 2): 79.46
- TZP insulin secretion iAUC ([4]; donor S1472, replicate 3): 69.48
- TZP insulin secretion iAUC, Percent Control ([4]; donor S2886, replicate 1): 19.6 %Control
- TZP insulin secretion iAUC, Percent Control ([4]; donor S2886, replicate 2): 20.0 %Control
- TZP insulin secretion iAUC, Percent Control ([4]; donor S2886, replicate 3): 50.9 %Control
- TZP insulin secretion iAUC ([4]; donor S2886, replicate 1): 36.46
- TZP insulin secretion iAUC ([4]; donor S2886, replicate 2): 37.22
- TZP insulin secretion iAUC ([4]; donor S2886, replicate 3): 94.97

From article PMC10290954 (Nature Metabolism, 2023)
